Values quoted from earlier work as cited in patent publication US20180272346A1, “MODULAR ORGAN MICROPHYSIOLOGICAL SYSTEM WITH MICROBIOME” (Massachusetts Institute of Technology, priority 2017, published 2018).

How the values were obtained:
[1] = system: human hepatocytes and kupffer cells co-culture
[2] = system: immune-competent gut MPS (Caco2, HT29-MTX, dendritic cells)
[3] = system: immune-competent gut-liver interacted MPS; conditions: tolcapone added to gut MPS ("oral")
[4] = system: immune-competent liver MPS (hepatocytes and Kupffer cells)
[5] = system: 7-way MPS platform (gut, liver and other MPSs)
[6] = oral, in vivo; read-out: maximum measured plasma concentration, Cmax

C[C@]12CCC(=O)C=C1CC[C@@H]1[C@@H]2[C@@H](O)C[C@@]2(C)[C@H]1CC[C@]2(O)C(=O)CO [Hydrocortisone (cortisol), Hydrocortisone]
differentiated function ([1]; cocultured liver MPS): enhanced
inflammatory response ([1]; cocultured liver MPS): suppressed
CYP450 activity ([1]; cultures up to 21 days): sensitive to hydrocortisone levels

Cc1ccc(C(=O)c2cc(O)c(O)c([N+](=O)[O-])c2)cc1 [Tolcapone]
cell death [2]: severe cellular death
epithelial function [2]: complete loss of epithelial function
MPS-specific cell death markers [3]: suffered from MPS-specific cell death markers
generic cell death marker [3]: insensitive
gut and liver MPS function [3]: MPS-specific loss of function
cell death [4]: caused cell death
mitochondrial activity [4]: decreased
function and cellular death (endometrium MPS): loss of function correlating with cellular death

Lipopolysaccharide [Lipopolysaccharide (LPS)]
lowest LPS stimulus the co-cultures were responsive to ([1]; hepatocyte-Kupffer co-culture): 0.01 µg/mL

O=C(O)Cc1ccccc1Nc1c(Cl)cccc1Cl [Diclofenac, diclofenac]
cell death [4]: minimal
absorption and distribution across MPS compartments [5]: absorbed across the gut epithelial barrier
unbound intrinsic clearance (CL_int(u)) ([5]; diclofenac added to apical side of gut MPS, estimated): 13.90 µL/min
fraction of clearance towards formation of the 4-OH-DCF metabolite ([5]; estimated): approximately 19%
function and cellular death (endometrium MPS): loss of function correlating with cellular death
Cmax [6]: 2 to 6 µM
